Measurements: ChEMBL document CHEMBL4145594, “Discovery of N-Alkyl Piperazine Side Chain Based CXCR4 Antagonists with Improved Drug-like Properties” (ACS Med Chem Lett, 2018)
pIC50: −log10 of the molar value. Active and inactive are the calls of the source. No cut-off for these calls is given here.

Legend:
[1] = Stability in human liver microsomes assessed as parent compound remaining at 0.5 uM after 10 mins by LC-MS analysis
Cytochrome P450 2D6 = Cytochrome P450 2D6 (Homo sapiens, UniProt P10635)
Description: Inhibition of recombinant human CYP2D6 expressed in insect cell microsomes using AMMC as substrate pretreated for 30 mins followed by NADPH addition measured after 45 mins by fluorescence assay

[2] = biological target: Muscarinic acetylcholine receptor; experiment: Antagonist activity at mAChR in human CCRF-CEM cells assessed as inhibition of acetylcholine-induced calcium flux pretreated for 25 mins followed by acetylcholine addition measured for 90 secs by calcium-dye based assay; format: functional, cell-based
Cytochrome P450 3A4 = Cytochrome P450 3A4 (Homo sapiens, UniProt P08684); experiment: Inhibition of CYP3A4 (unknown origin); format: ADME
[3] = biological target: T1, C-X-C chemokine receptor type 4 (Homo sapiens, UniProt P61073); experiment: Agonist activity at CXCR4 in human CCRF-CEM cells measured for 90 secs by calcium flux assay; format: functional, cell-based
[4] = Stability in mouse liver microsomes assessed as parent compound remaining at 0.5 uM after 10 mins by LC-MS analysis
[5] = Stability in rat liver microsomes assessed as parent compound remaining at 0.5 uM after 10 mins by LC-MS analysis
[6] = biological target: T1, C-X-C chemokine receptor type 4; experiment: Antagonist activity at CXCR4 in human CCRF-CEM cells assessed as inhibition of […]-induced calcium flux pretreated for 25 mins followed by […] addition measured for 90 secs by calcium-dye based assay; format: functional, cell-based
in vitro = conditions: PAMPA, pH 7.4
Description: Permeability of the compound at pH 7.4 after 4 hrs by PAMPA

Acetylcholinesterase = Acetylcholinesterase (Homo sapiens, UniProt P22303); experiment: Inhibition of AChE (unknown origin)
[7] = biological target: T2, Alpha-2A adrenergic receptor (Homo sapiens, UniProt P08913); experiment: Inhibition of adrenergic alpha2A receptor (unknown origin)
T2 sequence (P08913 whole entry): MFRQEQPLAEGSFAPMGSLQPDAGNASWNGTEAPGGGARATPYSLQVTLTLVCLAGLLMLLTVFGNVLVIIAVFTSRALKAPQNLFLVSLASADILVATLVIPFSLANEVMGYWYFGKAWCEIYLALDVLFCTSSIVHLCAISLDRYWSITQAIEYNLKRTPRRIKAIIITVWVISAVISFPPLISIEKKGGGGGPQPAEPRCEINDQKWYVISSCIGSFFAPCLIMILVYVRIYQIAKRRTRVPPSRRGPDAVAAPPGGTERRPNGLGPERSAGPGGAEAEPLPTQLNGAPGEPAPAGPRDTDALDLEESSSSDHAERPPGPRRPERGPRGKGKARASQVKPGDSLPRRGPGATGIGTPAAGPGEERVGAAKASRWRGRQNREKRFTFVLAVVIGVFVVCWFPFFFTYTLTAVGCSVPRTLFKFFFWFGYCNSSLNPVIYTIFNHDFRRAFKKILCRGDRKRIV

Mu-type opioid receptor = Mu-type opioid receptor (Homo sapiens, UniProt P35372); experiment: Inhibition of mu opioid receptor (unknown origin)
[8] = biological target: Acetylcholine receptor subunit alpha (Homo sapiens, UniProt P02708); experiment: Inhibition of nAChR alpha1 (unknown origin)
Homo sapiens [9] = species on record: Homo sapiens; experiment: Therapeutic index, ratio of IC50 for AChE (unknown origin) to IC50 for CXCR4 in human CCRF-CEM cells; format: cell-based
Homo sapiens [10] = species on record: Homo sapiens; experiment: Therapeutic index, ratio of IC50 for adrenergic alpha2A receptor (unknown origin) to IC50 for CXCR4 in human CCRF-CEM cells; format: cell-based
Homo sapiens [11] = species on record: Homo sapiens; experiment: Therapeutic index, ratio of IC50 for nAChR alpha1 (unknown origin) to IC50 for CXCR4 in human CCRF-CEM cells; format: cell-based
Homo sapiens [12] = species on record: Homo sapiens; experiment: Therapeutic index, ratio of IC50 for mu opioid receptor (unknown origin) to IC50 for CXCR4 in human CCRF-CEM cells; format: cell-based

Chain of Acetylcholine receptor subunit alpha (P02708 whole entry): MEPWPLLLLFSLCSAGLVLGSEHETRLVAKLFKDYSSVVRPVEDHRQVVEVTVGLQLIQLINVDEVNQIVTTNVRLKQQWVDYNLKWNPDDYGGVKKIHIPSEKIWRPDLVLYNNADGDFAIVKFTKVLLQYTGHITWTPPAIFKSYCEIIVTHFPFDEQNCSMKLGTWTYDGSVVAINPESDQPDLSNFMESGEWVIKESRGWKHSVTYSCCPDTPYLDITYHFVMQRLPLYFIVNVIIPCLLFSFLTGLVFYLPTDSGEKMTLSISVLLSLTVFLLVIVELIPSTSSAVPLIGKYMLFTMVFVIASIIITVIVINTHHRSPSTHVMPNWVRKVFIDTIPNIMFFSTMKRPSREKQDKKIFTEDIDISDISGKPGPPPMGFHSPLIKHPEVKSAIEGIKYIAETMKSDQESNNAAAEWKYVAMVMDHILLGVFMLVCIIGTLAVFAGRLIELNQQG
Chain of Cytochrome P450 2D6 (P10635 whole entry): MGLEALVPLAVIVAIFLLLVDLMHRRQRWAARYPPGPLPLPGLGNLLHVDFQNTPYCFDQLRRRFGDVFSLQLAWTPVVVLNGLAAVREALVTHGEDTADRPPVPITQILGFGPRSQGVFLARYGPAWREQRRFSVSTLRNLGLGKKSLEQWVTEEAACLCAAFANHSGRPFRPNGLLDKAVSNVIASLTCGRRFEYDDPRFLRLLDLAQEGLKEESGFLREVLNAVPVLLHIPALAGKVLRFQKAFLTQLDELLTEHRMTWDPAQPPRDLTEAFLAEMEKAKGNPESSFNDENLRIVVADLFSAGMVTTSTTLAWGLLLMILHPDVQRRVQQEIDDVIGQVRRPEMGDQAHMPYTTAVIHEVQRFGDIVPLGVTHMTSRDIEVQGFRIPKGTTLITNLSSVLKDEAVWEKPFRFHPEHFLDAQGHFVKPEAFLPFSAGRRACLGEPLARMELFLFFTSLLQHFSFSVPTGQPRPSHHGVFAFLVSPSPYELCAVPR
Chain of Cytochrome P450 3A4 (P08684 whole entry): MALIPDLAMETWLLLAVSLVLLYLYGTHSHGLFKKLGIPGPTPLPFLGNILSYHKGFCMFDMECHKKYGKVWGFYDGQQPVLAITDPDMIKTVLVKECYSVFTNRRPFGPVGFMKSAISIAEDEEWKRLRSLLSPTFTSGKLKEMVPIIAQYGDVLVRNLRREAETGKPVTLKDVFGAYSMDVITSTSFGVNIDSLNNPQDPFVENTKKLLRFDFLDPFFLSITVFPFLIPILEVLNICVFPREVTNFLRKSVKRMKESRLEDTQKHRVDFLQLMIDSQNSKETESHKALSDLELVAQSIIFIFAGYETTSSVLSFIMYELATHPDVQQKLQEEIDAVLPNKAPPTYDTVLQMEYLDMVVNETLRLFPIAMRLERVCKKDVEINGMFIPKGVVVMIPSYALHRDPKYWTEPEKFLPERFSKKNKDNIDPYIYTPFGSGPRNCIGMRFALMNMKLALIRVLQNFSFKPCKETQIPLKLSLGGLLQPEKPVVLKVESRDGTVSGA
T1 sequence (P61073 whole entry): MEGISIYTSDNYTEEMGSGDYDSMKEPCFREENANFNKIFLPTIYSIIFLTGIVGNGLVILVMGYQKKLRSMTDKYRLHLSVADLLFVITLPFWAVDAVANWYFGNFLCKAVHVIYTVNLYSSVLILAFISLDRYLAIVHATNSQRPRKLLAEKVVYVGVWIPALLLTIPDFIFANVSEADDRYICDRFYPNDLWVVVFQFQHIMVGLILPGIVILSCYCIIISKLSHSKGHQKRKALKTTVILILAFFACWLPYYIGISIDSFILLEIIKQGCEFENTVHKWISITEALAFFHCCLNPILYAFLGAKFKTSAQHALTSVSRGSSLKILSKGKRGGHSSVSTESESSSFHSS
Chain of Mu-type opioid receptor (P35372 whole entry): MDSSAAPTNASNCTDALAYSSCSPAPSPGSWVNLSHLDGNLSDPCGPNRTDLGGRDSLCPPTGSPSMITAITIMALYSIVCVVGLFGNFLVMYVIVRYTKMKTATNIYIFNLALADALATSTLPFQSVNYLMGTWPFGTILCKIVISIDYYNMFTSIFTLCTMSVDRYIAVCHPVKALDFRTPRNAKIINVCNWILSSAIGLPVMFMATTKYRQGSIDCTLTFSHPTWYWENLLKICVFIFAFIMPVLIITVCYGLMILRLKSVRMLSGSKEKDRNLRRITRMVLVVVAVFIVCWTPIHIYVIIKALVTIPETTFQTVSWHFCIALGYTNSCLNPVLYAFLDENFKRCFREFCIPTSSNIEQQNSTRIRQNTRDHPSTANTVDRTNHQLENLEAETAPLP
Chain of Acetylcholinesterase (P22303 whole entry): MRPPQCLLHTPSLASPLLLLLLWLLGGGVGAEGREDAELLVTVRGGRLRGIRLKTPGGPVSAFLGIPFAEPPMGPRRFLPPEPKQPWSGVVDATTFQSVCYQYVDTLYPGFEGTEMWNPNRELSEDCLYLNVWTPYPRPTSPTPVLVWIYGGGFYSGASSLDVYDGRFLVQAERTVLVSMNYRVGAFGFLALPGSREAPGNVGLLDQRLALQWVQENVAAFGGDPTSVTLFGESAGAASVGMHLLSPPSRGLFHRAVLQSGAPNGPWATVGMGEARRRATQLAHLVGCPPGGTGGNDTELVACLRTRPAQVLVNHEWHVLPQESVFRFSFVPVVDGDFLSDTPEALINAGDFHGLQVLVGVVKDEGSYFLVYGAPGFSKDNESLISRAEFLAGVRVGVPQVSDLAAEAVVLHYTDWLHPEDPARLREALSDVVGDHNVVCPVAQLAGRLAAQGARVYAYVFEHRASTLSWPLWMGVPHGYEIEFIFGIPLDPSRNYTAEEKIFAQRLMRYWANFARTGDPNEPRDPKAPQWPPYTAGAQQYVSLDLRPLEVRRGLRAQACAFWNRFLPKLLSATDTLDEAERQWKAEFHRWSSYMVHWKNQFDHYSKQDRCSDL

| SMILES | remaining at 10 min, 0.5 µM [1] | pIC50 (Cytochrome P450 2D6) | IC50 [2] | pIC50 (Cytochrome P450 3A4) | Activity [3] | remaining at 10 min, 0.5 µM [4] | remaining at 10 min, 0.5 µM [5] | pIC50 [6] | Papp at 4 h (in vitro) | pIC50 (Acetylcholinesterase) | pIC50 [7] | pIC50 (Mu-type opioid receptor) | pIC50 [8] | Ratio IC50 (Homo sapiens [9]) | Ratio IC50 (Homo sapiens [10]) | Ratio IC50 (Homo sapiens [11]) | Ratio IC50 (Homo sapiens [12]) |
| --- | --- | --- | --- | --- | --- | --- | --- | --- | --- | --- | --- | --- | --- | --- | --- | --- | --- |
| c1cnc2c(c1)CCC[C@@H]2N(CCCN1CCNCC1)Cc1nc2ccccc2s1 | 50% | < 4.70 | > 17 µM | 5.03 | inactive | 45% | 21% |  |  |  |  |  |  |  |  |  |  |
| c1ccc2c(c1)CN[C@@H](CN(CC1CCNCC1)[C@H]1CCCc3cccnc31)C2 | 86% | 5.73 | > 14 µM | < 4.92 | inactive | 13% | 65% | 7.19 |  |  |  |  |  |  |  |  |  |
| c1ccc2c(c1)CN[C@@H](CN(CC[C@@H]1CCCNC1)[C@H]1CCCc3cccnc31)C2 | 75% | 7.52 | > 14 µM | < 4.92 | inactive | 23% | 28% | 6.79 |  |  |  |  |  |  |  |  |  |
| c1ccc2c(c1)CN[C@@H](CN(CCCCN1CCNCC1)[C@H]1CCCc3cccnc31)C2 | 82% | 5.84 | > 14 µM | < 4.92 | inactive | 96% | 15% | 7.18 | 1.4 ×10⁻⁶ cm/s |  |  |  |  |  |  |  |  |
| NCCCCN(C[C@H]1Cc2ccccc2CN1)[C@H]1CCCc2cccnc21 |  |  |  |  | inactive |  |  |  |  | < 4.52 | 5.43 | 4.83 | < 4.52 |  |  |  |  |
| c1ccc2c(c1)CN[C@H](CN(CCCN1CCNCC1)[C@H]1CCCc3cccnc31)C2 | 99% | 5.85 | > 17 µM | < 4.70 | inactive | 88% | 88% | 5.94 | 1.6 ×10⁻⁶ cm/s |  |  |  |  |  |  |  |  |
| c1cnc2c(c1)CN[C@@H](CN(CCCN1CCNCC1)[C@H]1CCCc3cccnc31)C2 | 79% | < 4.70 | > 17 µM | < 4.70 | inactive | 78% | 79% | 6.77 | 0.9 ×10⁻⁶ cm/s |  |  |  |  |  |  |  |  |
| c1ccc2c(c1)CN[C@@H](CN(CCCN1CCN(C3CC3)CC1)[C@H]1CCCc3cccnc31)C2 | 21% | 5.22 | > 17 µM | < 4.70 | inactive | 3% | 2% | 7.30 | 50.5 ×10⁻⁶ cm/s |  |  |  |  |  |  |  |  |
| c1cnc2c(c1)CN[C@H](CN(CCCN1CCNCC1)[C@H]1CCCc3cccnc31)C2 | 100% | < 4.70 | > 17 µM | < 4.70 | inactive | 63% | 87% | 5.58 |  |  |  |  |  |  |  |  |  |
| c1ccc2c(c1)CN[C@@H](CN(CCN1CCNCC1)[C@H]1CCCc3cccnc31)C2 | 96% | 5.38 | > 14 µM | < 4.92 | inactive | 79% | 62% | 6.26 | 1 ×10⁻⁶ cm/s |  |  |  |  | < 100 |  |  |  |
| CCN1CCN(CCCN(C[C@H]2Cc3ccccc3CN2)[C@H]2CCCc3cccnc32)CC1 | 59% | < 4.70 | > 17 µM | < 4.70 | inactive | 19% | 1% | 7.48 | 31.7 ×10⁻⁶ cm/s |  |  |  |  |  |  |  |  |
| CN1CCN(CCCN(C[C@H]2Cc3ccccc3CN2)[C@H]2CCCc3cccnc32)CC1 | 72% | 5.25 | 6.56 µM | < 4.70 | inactive | 53% | 10% | 6.90 | 36 ×10⁻⁶ cm/s |  |  |  |  |  |  |  |  |
| c1ccc2c(c1)CN[C@@H](CN(CCCN1CCNCC1)[C@H]1CCCc3cccnc31)C2 | 100% | 5.67 | > 14 µM | < 4.92 | inactive | 92% | 100% | 7.77 |  | < 4.52 | < 4.52 | < 4.52 | < 4.52 | < 100 | < 100 | < 100 | < 100 |
| CC(C)N1CCN(CCCN(C[C@H]2Cc3ccccc3CN2)[C@H]2CCCc3cccnc32)CC1 | 46% | 5.18 | > 17 µM | < 4.70 | inactive | 58% | 4% | 7.21 | 34.4 ×10⁻⁶ cm/s |  |  |  |  |  |  |  |  |
| NC(=O)N1CCN(CCCN(C[C@H]2Cc3ccccc3CN2)[C@H]2CCCc3cccnc32)CC1 | 79% | 5.38 | 4.98 µM | < 4.70 | inactive | 42% | 4% | 6.02 | 6.7 ×10⁻⁶ cm/s |  |  |  |  |  |  |  |  |
| c1cnc2c(c1)CCC[C@@H]2N(CCCN1CCNCC1)Cc1cc2ccccc2cn1 | 66% | 5.53 | 3.2 µM | < 4.70 | inactive | 74% | 59% | 7.77 | 24.3 ×10⁻⁶ cm/s |  |  |  |  |  |  |  |  |
| c1ccc2c(c1)CN[C@@H](CN(CCC1CCNCC1)[C@H]1CCCc3cccnc31)C2 | 66% | 5.98 | > 14 µM | < 4.92 | inactive | 32% | 17% | 6.82 | 1.9 ×10⁻⁶ cm/s |  |  |  |  |  |  |  |  |
| CN1CCN(CCCN(CC2Cc3ccccc3CN2C)[C@H]2CCCc3cccnc32)CC1 (single isomer, unassigned) | 60% | 5.29 | > 17 µM | < 4.70 | inactive | 43% | 2% | 6.27 | 51.3 ×10⁻⁶ cm/s |  |  |  |  |  |  |  |  |
| c1cnc(CN(CCCN2CCNCC2)[C@H]2CCCc3cccnc32)nc1 | 100% | < 4.70 | > 17 µM | < 4.70 | inactive | 78% | 68% |  | 3.1 ×10⁻⁶ cm/s |  |  |  |  |  |  |  |  |
| NCCCCN(Cc1nc2ccccc2[nH]1)[C@H]1CCCc2cccnc21 [MAVORIXAFOR] |  |  | > 17 µM |  | inactive |  |  |  |  |  |  |  |  |  |  |  |  |
| c1cnc2c(c1)CCC[C@@H]2N(CCCN1CCNCC1)Cc1nc2ccccc2[nH]1 | 63% | < 4.70 | > 17 µM | 4.90 | inactive | 68% | 29% |  | 14.6 ×10⁻⁶ cm/s |  |  |  |  |  |  |  |  |
| c1ccc2c(c1)CN[C@@H](CN(CC[C@H]1CCCNC1)[C@H]1CCCc3cccnc31)C2 | 93% | 6.96 | > 14 µM | < 4.92 | inactive | 56% | 55% | 7.80 | 5.5 ×10⁻⁶ cm/s | 4.97 | 5.23 | 4.95 | 4.95 | < 100 | 100 to 1000 | < 100 | 100 to 1000 |
